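Each compound was tested at five concentrations against cells in 96-well plates for 48 hours. The concentration for 50% growth inhibition is given as GI50. TGI marks complete inhibition of growth.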
Tests used:
Test in all cases: DTP human tumour cell line panel, 48 h
OVCAR-4 ovarian = system: OVCAR-4 ovarian
SW-620 colon = system: SW-620 colon
HCC-2998 colon = system: HCC-2998 colon
CCRF-CEM leukemia = system: CCRF-CEM leukemia
SK-MEL-5 melanoma = system: SK-MEL-5 melanoma
SK-MEL-2 melanoma = system: SK-MEL-2 melanoma
SF-268 CNS = system: SF-268 CNS
SNB-75 CNS = system: SNB-75 CNS
IGROV1 ovarian = system: IGROV1 ovarian
MDA-MB-435 = system: MDA-MB-435

## C=C(C#N)C1OCC2OC(C)(C)OC21 (stereo not drawn)
OVCAR-4 ovarian
  TGI: 33.6 µM
SW-620 colon
  TGI: 39.6 µM
HCC-2998 colon
  TGI: 83.6 µM
CCRF-CEM leukemia
  TGI: 48.8 µM
SK-MEL-5 melanoma
  TGI: 34 µM
SK-MEL-2 melanoma
  TGI: 77.2 µM
SF-268 CNS
  TGI: 52.5 µM
SNB-75 CNS
  TGI: 35.9 µM
IGROV1 ovarian
  TGI: > 100 µM

## COc1ccc(/C(=N\NC(=O)C(=O)NN)C(c2ccc(OC)cc2)C2(O)C(=O)Nc3ccccc32)cc1 (stereo not drawn)
SW-620 colon
  TGI: > 100 µM
SK-MEL-5 melanoma
  TGI: > 100 µM
SK-MEL-2 melanoma
  TGI: > 100 µM
SF-268 CNS
  TGI: > 100 µM
SNB-75 CNS
  TGI: > 100 µM
IGROV1 ovarian
  TGI: > 100 µM

## NC(=O)CCC(Nc1c2ccccc2nc2ccccc12)C(=O)O (stereo not drawn)
OVCAR-4 ovarian
  TGI: 80.8 µM
SW-620 colon
  TGI: > 100 µM
HCC-2998 colon
  TGI: > 100 µM
CCRF-CEM leukemia
  TGI: > 100 µM
SK-MEL-2 melanoma
  TGI: > 100 µM
SF-268 CNS
  TGI: > 100 µM
SNB-75 CNS
  TGI: > 100 µM

## COc1ccc2c3c([nH]c2c1[N+](=O)[O-])C(C)N(Cc1ccc([N+](=O)[O-])cc1)CC3 (stereo not drawn)
OVCAR-4 ovarian
  TGI: 12.2 µM
SW-620 colon
  TGI: > 100 µM
HCC-2998 colon
  TGI: 37.3 µM
CCRF-CEM leukemia
  TGI: > 100 µM
SK-MEL-2 melanoma
  TGI: 41 µM
SF-268 CNS
  TGI: 9.22 µM
IGROV1 ovarian
  TGI: > 100 µM

## COc1ccc(-c2oc(=O)ccc2-c2cc(OC)c(OC)c(OC)c2)cc1O
OVCAR-4 ovarian
  GI50: 6.65 µM
  TGI: > 100 µM
SW-620 colon
  GI50: 0.612 µM
  TGI: > 47.6 µM
HCC-2998 colon
  GI50: 1.8 µM
  TGI: 10.5 µM
CCRF-CEM leukemia
  GI50: 2.07 µM
  TGI: 18.9 µM
SK-MEL-5 melanoma
  GI50: 0.514 µM
  TGI: 12.7 µM
SK-MEL-2 melanoma
  GI50: 2.31 µM
  TGI: > 38.7 µM
SF-268 CNS
  GI50: 2.04 µM
  TGI: > 72.1 µM
SNB-75 CNS
  GI50: 1.26 µM
  TGI: > 100 µM

## C=C1C(C2(C)C(OC(C)=O)CC(=O)OC(C)(COC(C)=O)C2CC(=O)OC)C(OC=O)C(OC(=O)C(O)C(C)CC)C2(C)C(c3ccoc3)CC(=O)C12O (stereo not drawn)
MDA-MB-435
  TGI: > 100 µM
OVCAR-4 ovarian
  TGI: > 100 µM
SW-620 colon
  TGI: > 100 µM
SK-MEL-5 melanoma
  TGI: > 100 µM
SK-MEL-2 melanoma
  TGI: > 100 µM
SF-268 CNS
  TGI: > 100 µM
SNB-75 CNS
  TGI: > 100 µM
IGROV1 ovarian
  TGI: > 100 µM

## CC(=C/C=C/C=C(C)\C=C\C=C(\C)C(=O)O)/C=C/C=C(/C)C(=O)O
MDA-MB-435
  TGI: > 100 µM
OVCAR-4 ovarian
  TGI: > 100 µM
SW-620 colon
  TGI: > 100 µM
CCRF-CEM leukemia
  TGI: > 100 µM
SK-MEL-5 melanoma
  TGI: > 100 µM
SK-MEL-2 melanoma
  TGI: > 100 µM
SF-268 CNS
  TGI: > 100 µM
SNB-75 CNS
  TGI: > 100 µM
IGROV1 ovarian
  TGI: > 100 µM

## O=C(Nc1ccc(Cl)cc1Cl)C1C(=O)C(=O)N(c2ccc(Cl)cc2Cl)C1=O (stereo not drawn)
OVCAR-4 ovarian
  TGI: > 100 µM
SW-620 colon
  TGI: > 100 µM
HCC-2998 colon
  TGI: > 100 µM
SK-MEL-5 melanoma
  TGI: > 100 µM
SF-268 CNS
  TGI: > 100 µM
SNB-75 CNS
  TGI: > 100 µM
IGROV1 ovarian
  TGI: > 100 µM

## C#CCOCn1cnc2c(Sc3c([N+](=O)[O-])ncn3C)ncnc21
OVCAR-4 ovarian
  TGI: > 100 µM
SW-620 colon
  TGI: > 100 µM
HCC-2998 colon
  TGI: > 100 µM
CCRF-CEM leukemia
  TGI: > 100 µM
SK-MEL-5 melanoma
  TGI: > 100 µM
SK-MEL-2 melanoma
  TGI: > 100 µM
SF-268 CNS
  TGI: > 100 µM
SNB-75 CNS
  TGI: 72.7 µM
IGROV1 ovarian
  TGI: > 100 µM

## CCOC(=O)/C(=C\c1ccc(N(CCC#N)CCC#N)cc1)NC(=O)c1cc([N+](=O)[O-])ccc1Cl
OVCAR-4 ovarian
  TGI: > 100 µM
SW-620 colon
  TGI: > 100 µM
HCC-2998 colon
  TGI: > 100 µM
CCRF-CEM leukemia
  TGI: > 100 µM
SK-MEL-5 melanoma
  TGI: > 100 µM
SK-MEL-2 melanoma
  TGI: > 100 µM
SF-268 CNS
  TGI: > 100 µM
SNB-75 CNS
  TGI: > 100 µM
IGROV1 ovarian
  TGI: > 100 µM

## CC1=C[C@]2(O)C(=O)[C@H](C)C[C@H]3[C@@H](CC[C@@](C)(O)/C=C\2C1=O)C3(C)C
OVCAR-4 ovarian
  TGI: 71.6 µM
SW-620 colon
  TGI: 35.9 µM
HCC-2998 colon
  TGI: > 69.5 µM
CCRF-CEM leukemia
  TGI: > 100 µM
SK-MEL-5 melanoma
  TGI: 50.8 µM
SK-MEL-2 melanoma
  TGI: 37.9 µM
SF-268 CNS
  TGI: 52.1 µM
SNB-75 CNS
  TGI: > 100 µM
IGROV1 ovarian
  TGI: 53.1 µM

## Cn1nc(-c2ccccc2)c(C(=O)/C=C/c2ccc(Cl)cc2)c(N2CCCCC2)c1=O
SW-620 colon
  TGI: 16.6 µM
CCRF-CEM leukemia
  TGI: 5.56 µM
SK-MEL-5 melanoma
  TGI: 3.75 µM
IGROV1 ovarian
  TGI: 4.95 µM

## CC(=O)c1cccc(C)c1C(=O)O
OVCAR-4 ovarian
  TGI: > 100 µM
SW-620 colon
  TGI: > 100 µM
HCC-2998 colon
  TGI: > 100 µM
CCRF-CEM leukemia
  TGI: > 100 µM
SK-MEL-5 melanoma
  TGI: > 100 µM
SK-MEL-2 melanoma
  TGI: > 100 µM
SF-268 CNS
  TGI: > 100 µM
SNB-75 CNS
  TGI: > 100 µM
IGROV1 ovarian
  TGI: > 100 µM

## CCOc1ccc(N=Cc2ccc3cc(C)ccc3n2)cc1
OVCAR-4 ovarian
  TGI: > 100 µM
SW-620 colon
  TGI: > 100 µM
HCC-2998 colon
  TGI: > 100 µM
CCRF-CEM leukemia
  TGI: 60.6 µM
SK-MEL-5 melanoma
  TGI: > 100 µM
SK-MEL-2 melanoma
  TGI: > 100 µM
SF-268 CNS
  TGI: > 100 µM
SNB-75 CNS
  TGI: > 100 µM
IGROV1 ovarian
  TGI: > 100 µM

## O=C(O)c1ccc(Oc2nccc(-c3c(-c4ccc(F)cc4)ncn3C3CCNCC3)n2)cc1
MDA-MB-435
  GI50: > 25 µM
  TGI: > 25 µM
OVCAR-4 ovarian
  GI50: > 25 µM
  TGI: > 25 µM
SW-620 colon
  GI50: > 25 µM
  TGI: > 25 µM
HCC-2998 colon
  GI50: > 25 µM
  TGI: > 25 µM
SK-MEL-5 melanoma
  GI50: > 25 µM
  TGI: > 25 µM
SK-MEL-2 melanoma
  GI50: > 25 µM
  TGI: > 25 µM
SF-268 CNS
  GI50: > 25 µM
  TGI: > 25 µM
SNB-75 CNS
  GI50: > 25 µM
  TGI: > 25 µM
IGROV1 ovarian
  GI50: > 25 µM
  TGI: > 25 µM

## O=C1C=CC(=O)C12CCc1ccccc12
OVCAR-4 ovarian
  TGI: > 100 µM
SW-620 colon
  TGI: > 100 µM
HCC-2998 colon
  TGI: > 100 µM
CCRF-CEM leukemia
  TGI: > 95.2 µM
SK-MEL-5 melanoma
  TGI: > 100 µM
SK-MEL-2 melanoma
  TGI: > 100 µM
SF-268 CNS
  TGI: > 100 µM
SNB-75 CNS
  TGI: > 100 µM
IGROV1 ovarian
  TGI: > 100 µM

## NC1CCC(Nc2nc(NCc3ccc(-c4ccccc4O)nc3)c3ncn(C4CCCC4)c3n2)CC1 (stereo not drawn)
MDA-MB-435
  GI50: 0.0119 µM
  TGI: 1.17 µM
SW-620 colon
  GI50: < 0.01 µM
  TGI: 1.23 µM
HCC-2998 colon
  GI50: 0.0229 µM
  TGI: 0.515 µM
CCRF-CEM leukemia
  GI50: < 0.01 µM
  TGI: 1.22 µM
SK-MEL-5 melanoma
  GI50: 0.0313 µM
  TGI: 1.17 µM
SK-MEL-2 melanoma
  GI50: 0.0227 µM
  TGI: 0.0583 µM
SF-268 CNS
  GI50: < 0.01 µM
  TGI: 0.344 µM
SNB-75 CNS
  GI50: 0.0121 µM
  TGI: 0.0356 µM
IGROV1 ovarian
  GI50: 0.0345 µM
  TGI: 2.04 µM

## CC(C)(C)CC(C)(C)c1cc2c(O)c(c1)Cc1cc(C(C)(C)CC(C)(C)C)cc(c1O)Cc1cc(C(C)(C)CC(C)(C)C)cc(c1O)Cc1cc(C(C)(C)CC(C)(C)C)cc(c1O)Cc1cc(C(C)(C)CC(C)(C)C)cc(c1O)C2
OVCAR-4 ovarian
  TGI: > 100 µM
SW-620 colon
  TGI: > 100 µM
HCC-2998 colon
  TGI: > 100 µM
CCRF-CEM leukemia
  TGI: > 100 µM
SK-MEL-5 melanoma
  TGI: > 100 µM
SK-MEL-2 melanoma
  TGI: > 100 µM
SF-268 CNS
  TGI: > 100 µM
SNB-75 CNS
  TGI: > 100 µM
IGROV1 ovarian
  TGI: > 100 µM

## O=C1NC(=O)C(c2ccccc2Cl)=C1Nc1cc(Cl)c(O)c(Cl)c1
MDA-MB-435
  GI50: 8.78 µM
  TGI: > 25 µM
OVCAR-4 ovarian
  GI50: 13.7 µM
  TGI: > 25 µM
SW-620 colon
  GI50: 9.74 µM
  TGI: > 25 µM
HCC-2998 colon
  GI50: > 25 µM
  TGI: > 25 µM
SK-MEL-5 melanoma
  GI50: 11.7 µM
  TGI: > 25 µM
SK-MEL-2 melanoma
  GI50: 12 µM
  TGI: > 25 µM
SF-268 CNS
  GI50: 12.1 µM
  TGI: > 25 µM
SNB-75 CNS
  GI50: > 13 µM
  TGI: > 25 µM
IGROV1 ovarian
  GI50: > 25 µM
  TGI: > 25 µM

## O=C(CCc1nnc2s/c(=C\c3ccc(Cl)c(Cl)c3)c(=O)n12)Nc1ccc(Cl)c(Cl)c1
OVCAR-4 ovarian
  TGI: > 100 µM
SW-620 colon
  TGI: > 100 µM
HCC-2998 colon
  TGI: > 100 µM
CCRF-CEM leukemia
  TGI: 60.2 µM
SK-MEL-5 melanoma
  TGI: > 100 µM
SF-268 CNS
  TGI: > 100 µM
SNB-75 CNS
  TGI: > 100 µM
IGROV1 ovarian
  TGI: > 100 µM

Source: PubChem BioAssay (NCI)
